Values joined by “and” are separate entries in the source; they are usually repeats but may differ in a detail not shown here. Identical values can stand only once. Like-named read-outs stand apart in the source and are kept apart here.
How the values were obtained:
[1] = system: RhΔKu80:mNeonGreen strain of T. gondii; assay: microbe, parasite or virus in culture; assay type: cell-based, Toxoplasma gondii
Protocol: Growth inhibition assays were carried out using the RhΔKu80:mNeonGreen strain of T. gondii, which expresses the mNeonGreen fluorescent protein.[56] Parasite growth inhibition was determined by measuring the fluorescence emission of parasite growth in increasing concentrations of compounds of interest.
T. gondii ΔKu80:mNeon tachyzoites were grown in human foreskin fibroblasts (HFFs) with Dulbecco's modified Eagle's medium (DMEM) supplemented with 3% heat inactivated foetal bovine serum (D3) as the culturing medium. Cells and parasites were maintained at 37 °C and 5% carbon dioxide (CO2).
EC50s were calculated as previously described.[56] Briefly, T. gondii ΔKu80:mNeon parasites were counted by haemocytometer and diluted to 25 000 parasites per mL in 40 mL of D3 media, to give an infection of 5000 parasites per well. The media from a black clear bottomed 96 well plate containing HFFs was then aspirated. 200 μL of uninfected D3 media was added to the top and bottom rows of wells (A and H) to serve as blanks. 200 μL of T. gondii containing D3 media was then added to the remaining wells. The parasites were allowed 2 hours to invade host cells, after which test compounds were added.
The media from the infected 96 well plates was then aspirated and 100 μL of D3 media added to each well, excluding column 12. The first 4 wells of column 12 were filled with 300 μL of drug supplemented D3 media, while the next 4 wells were filled with 300 μL of D3 media supplemented with a different drug. The drug supplemented D3 media was then serially diluted 1 : 3 across the plate, stopping at column 2 and disposing of the media, leaving all wells with 100 μL of media. Finally, the plates were closed and incubated at 37 °C with 5% CO2 for 4 days. After 4 days the fluorescence of each well on the plates was read at 594 nm emission using a PHERAstar FS microplate reader. Graphpad Prism 9 software was used to plot dose–response and determine inhibition of parasite growth.

Cyclic voltammetry = assay type: physicochemical
Excerpt: Ferrocene is known to undergo reversible oxidation and reduction, cycling between its 3^+ ferrocenium and the 2^+ ferrocene (Fc) states.[49,50] This redox behaviour leads to the generation of reactive oxygen species (ROS) through Fenton like reactions, which can in turn lead to parasite death.[51–53] Cyclic voltammetry was used to determine if the synthesised ferrocenyl derivatives had the potential to have an impact on the redox status of the parasite cells. Two different scan rates (25 and 90 mV s^−1) were used to ensure the reliability of the results, compared to ferrocene alone.

T. gondii parasites = assay: Determination of ROS formation by FACS (CellROX deep red); assay type: cell-based, Toxoplasma gondii; conditions: 66 μM, 18 hours, compared with untreated parasites
Protocol: Once it had been established that two of the synthesised ferrocenyl benzimidazole derivatives were biologically active, their potential mode of action was explored. Given the presence of the ferrocenyl moiety, and the cyclic voltammetry results, it was of interest to investigate whether the compounds induce ROS, which may provide an explanation for their anti-parasitic activity. Thus, cells heavily infected with parasites were incubated with target compounds for 18 hours, before isolating the parasites and staining them with CellRox deep red reagent. CellRox is an oxidation sensitive dye which is non-fluorescent in its reduced state but fluoresces bright red at 665 nm upon being oxidised by ROS. FACS was then used to quantify CellROX parasite florescence.[56] Parasites were incubated with ferrocene carboxylic acid (FcCOOH), and untreated parasites were used as controls.
6 cm dishes of host cells heavily infected with T. gondii were untreated or treated with 66 μM (second highest concentration used in growth inhibition assays) of test compounds for 18 hours. The dishes were then scratched and syringed, before filtering the solution into 10 mL falcon tubes to remove cell debris. The tubes were spun down for 10 minutes at 1500 rpm. The media was then removed from the tubes, and the pellet resuspended in 200 μL of PBS buffer. For each drug, 100 μL of the resuspended pellet was then placed into 2 FACS tubes, one which would then be stained with CellROX dye, and the other 100 μL of PBS added to act as an unstained control. A 1 : 125 dilution of CellROX stock solution was performed, and 100 μL of this solution added to the FACS tubes needing staining. Stained tubes were incubated at 37 °C for at least 15 min before analysis on a BD Celesta flow cytometer. Data was obtained using FACSDiva software with parasites being gated on forward scatter, side scatter and green fluorescence. FlowJo v10 software was used to plot the geometric mean of CellRox fluorescence from at least 5000 parasites on the Cy7 channel.

[2] = Aqueous stability studies (UV-vis monitoring, ESI-MS follow-up); assay type: physicochemical; conditions: for Change of UV-vis spectrum over time (aqueous stability): PBS pH 7.4, HEPES pH 7.0 and acetate buffer pH 4.6, 37 °C, 18 hours, 50 μM
Protocol: The stability of complexes 14–17 in an aqueous environment was investigated. The stability experiments were performed in PBS (pH 7.4) and HEPES (pH 7.0) buffers, as well as in acidic acetate buffer (pH 4.6), by monitoring the UV-vis spectra of the compounds at 37 °C over an 18-hour period.
To further investigate the stability of 14, the PBS, HEPES and acetate buffer solutions were evaporated to dryness, and then analysed using electrospray ionisation mass spectrometry in the positive ionisation mode.
PBS and HEPES buffers were prepared as described above. An acetate buffer with a concentration of […] and a pH of 4.60 was prepared by dissolving 5.40 g (65.83 mmol) of sodium acetate in 50 mL of dH2O. The resulting solution was then titrated to a pH of 4.60 with glacial acetic acid and made up to 100 mL with dH2O.
1 mM stock solutions of the synthesised target compounds in MeOH were prepared. 1.90 mL of buffer (PBS, HEPES or acetate buffer) was pipetted into cuvettes followed by the addition 100 μL of test compound stock solutions, diluting them to a final concentration of 50 μM. The cuvettes were then stoppered, inverted to mix the solution, and placed in an Agilent Cary 3500 UV-vis spectrophotometer as fast as possible. Blank solutions in matched cuvettes were also prepared by adding 100 μL of MeOH to 1.9 mL of buffer. The solutions in all the cuvettes were stirred at 400 rpm ensure proper mixing. UV spectra were then recoded every 5 minutes for 18 hours with a spectral width of 200–1100 nm to monitor the stability of the test compounds.

[3] = Turbidimetric solubility assay; conditions: for solubility at 2 h: kinetic from dmso stock
Protocol: A single phosphate buffered saline (PBS) tablet (Sigma Aldrich) was dissolved in 200 mL of distilled water (dH2O) (25 °C) to obtain a PBS solution with 0.01 M phosphate buffer, 0.14 M NaCl and 0.003 M KCl.
Stock solutions of the compounds to be tested were prepared in DMSO at a concentration of 10 mM and filtered through syringe filters. Serial dilution of the stock solutions with DMSO was then carried out in a preparatory (prep) 96-well plate giving concentrations between 0.00 and 10.0 mM (0.00, 0.25, 0.50, 1.0, 2.0, 4.0, 8.0 and 10 mM). The solutions were then further diluted into 96-well assay plates containing DMSO, PBS or HEPES buffer by pipetting 4.00 μL of solution from the prep plate to the Assay plate containing 196 μL of DMSO or buffer, giving final concentrations between 0.00 and 200 μM (0.00, 5.00, 10.0, 20.0, 40.0, 80.0, 160 and 200 μM). The assay plates were incubated at 25.0 or 37.0 °C for two hours before their UV-vis absorbance was read at 620 nm with a SPECTROstar Nano microplate reader spectrophotometer. Blank readings were used to gain corrected readings by subtracting them from obtained absorbances for each compound concentration.

HEK293T cell line = conditions: 25 μM, MTT 48 hours
Protocol: Human prostatic epithelial cells (PNT1A) were cultured in Rosewell Park Memorial Institute (RPMI) media supplemented with 10% heat inactivated FBS. Both cell lines were incubated at 37 °C with 5% CO2. Both cell lines were obtained from ATCC.
The cells were allowed to recover overnight before the addition of compounds.
Stock solutions of the test compounds in DMSO were prepared and serially diluted in DMSO in a 96 well plate. […] 10 μL of the test compounds in media was then pipetted into the plates containing cells in triplicate. The cells were then incubated with the test compounds for 48 hours. After incubation, 10 μL of previously prepared MTT reagent was added to each well followed by incubation of the plates for 4 hours. 100 μL of solubilising agent was then pipetted into each well, and the plates incubated overnight. After overnight incubation the plates were read using a BioTek SYNERGY HTX multimode plate reader at 595 nm. Graphpad Prism 9 software was used to plot dose–response and determine cell viability.

[4] = T. gondii ΔKu80:mNeon in HFFs, 4 days, highest concentration 100 μM, NA = not active at the maximum tested concentration, three biological replicates in triplicate
[5] = T. gondii ΔKu80:mNeon in HFFs, 4 days, highest concentration 100 μM, NA = not active at the maximum tested concentration, three biological replicates in triplicate, read-out: EC50

SMILES: O=C(O)[c-]1cccc1.[Fe+2].c1cc[cH-]c1 [FcCOOH, ferrocene carboxylic acid, reference compound]
- EC50 [1, 4]: no activity
- E 1/2 (Cyclic voltammetry; Run1, scan rate 25 mV s^−1): 688 mV
- ΔEp (Cyclic voltammetry; Run1, scan rate 25 mV s^−1): 89 mV
- E 1/2 (Cyclic voltammetry; Run2, scan rate 90 mV s^−1): 689 mV
- ΔEp (Cyclic voltammetry; Run2, scan rate 90 mV s^−1): 71 mV
- ROS formation in treated parasites (CellRox red fluorescence) (T. gondii parasites): only showed slightly more ROS present than untreated parasites

SMILES: O=C(NCCn1c(-c2ccccc2)nc2ccccc21)[c-]1cccc1.[Fe+2].c1cc[cH-]c1 [Compound 14]
- Change of UV-vis spectrum over time (aqueous stability) [2]: showed reduced intensity over time
- Stability in buffer by ESI-MS of evaporated buffer solutions ([2]; PBS, HEPES and acetate buffer, molecular ion peak present): remained intact and was stable
- Solubility range ([3]; HEPES (pH 7.0), 25 °C): 20-40 µM and 9-18 µg/mL
- Solubility class ([3]; HEPES (pH 7.0), 37 °C): poor (solubility <10 μg mL^−1 are considered to have poor solubility)
- Solubility range ([3]; HEPES (pH 7.0), 37 °C): 5-10 µM and 2–4 µg/mL
- Solubility range ([3]; PBS (pH7.4), 25 °C): 10-20 µM and 4-9 µg/mL
- Solubility range ([3]; PBS (pH7.4), 37 °C): 10-20 µM and 4-9 µg/mL
- E 1/2 (Cyclic voltammetry; Run1, scan rate 25 mV s^−1): 638 mV
- ΔEp (Cyclic voltammetry; Run1, scan rate 25 mV s^−1): 89 mV
- E 1/2 (Cyclic voltammetry; Run2, scan rate 90 mV s^−1): 641 mV
- ΔEp (Cyclic voltammetry; Run2, scan rate 90 mV s^−1): 75 mV

SMILES: CCc1nc(N)nc(N)c1-c1ccc(Cl)cc1 [Pyrimethamine]
- EC50 [1, 5]: 13.8 µM
- EC50 ([1]; Toxoplasma gondii, 96 h, T. gondii ΔKu80:mNeon in HFFs, 4 days, highest concentration 100 μM, NA = not active at the maximum tested concentration, three biological replicates in triplicate, read-out: EC50): 13.8 µM

SMILES: Nc1ccc(S(=O)(=O)Nc2ncccn2)cc1 [Sulfadiazine]
- EC50 ([1]; Toxoplasma gondii, 96 h): 2.56 µM

SMILES: O=C(Cl)[c-]1cccc1.[Fe+2].c1cc[cH-]c1 [FcCOCl]
- EC50 [1, 4]: no activity

SMILES: COC(=O)[C@H]1[C@H]2C[C@@H]3c4[nH]c5cc(OC)ccc5c4CCN3C[C@H]2C[C@@H](OC(=O)c2cc(OC)c(OC)c(OC)c2)[C@@H]1OC [Reserpine, reference compound]
- solubility at 2 h ([3]; HEPES buffer, 25 °C, pH 7, aqueous buffer): < 5 µM and < 3 µg/mL
- solubility at 2 h ([3]; HEPES buffer, 37 °C, pH 7, aqueous buffer): < 5 µM and < 3 µg/mL
- solubility at 2 h ([3]; PBS buffer, 25 °C, pH 7.4, aqueous buffer): < 5 µM and < 3 µg/mL
- solubility at 2 h ([3]; PBS buffer, 37 °C, pH 7.4, aqueous buffer): < 5 µM and < 3 µg/mL

SMILES: O=C(NCCn1cnc2ncccc21)[c-]1cccc1.[Fe+2].c1cc[cH-]c1 [Compound 16]
- Change of UV-vis spectrum over time (aqueous stability) [2]: remained unchanged
- Solubility range ([3]; HEPES (pH 7.0), 25 °C): 20-40 µM and 7-15 µg/mL
- Solubility class ([3]; HEPES (pH 7.0), 37 °C): poor (solubility <10 μg mL^−1 are considered to have poor solubility)
- Solubility range ([3]; HEPES (pH 7.0), 37 °C): 10-20 µM and 4–7 µg/mL
- Solubility range ([3]; PBS (pH7.4), 25 °C): 10-20 µM and 4-7 µg/mL
- Solubility range ([3]; PBS (pH7.4), 37 °C): 10-20 µM and 4-7 µg/mL
- E 1/2 (Cyclic voltammetry; Run1, scan rate 25 mV s^−1): 632 mV
- ΔEp (Cyclic voltammetry; Run1, scan rate 25 mV s^−1): 99 mV
- E 1/2 (Cyclic voltammetry; Run2, scan rate 90 mV s^−1): 642 mV
- ΔEp (Cyclic voltammetry; Run2, scan rate 90 mV s^−1): 69 mV
- ROS formation in treated parasites (CellRox red fluorescence) (T. gondii parasites): not

SMILES: [Fe+2].c1cc[cH-]c1.c1cc[cH-]c1 [Fc, ferrocene, reference compound]
- E 1/2 (Cyclic voltammetry; Run1, scan rate 25 mV s^−1): 451 mV
- ΔEp (Cyclic voltammetry; Run1, scan rate 25 mV s^−1): 108 mV
- E 1/2 (Cyclic voltammetry; Run2, scan rate 90 mV s^−1): 453 mV
- ΔEp (Cyclic voltammetry; Run2, scan rate 90 mV s^−1): 83 mV

SMILES: O=C(NCCn1cnc2ccccc21)[c-]1cccc1.[Fe+2].c1cc[cH-]c1 [Compound 15]
- Change of UV-vis spectrum over time (aqueous stability) [2]: remained unchanged
- Cell survival / % cell viability (HEK293T cell line): 50%
- Solubility range ([3]; HEPES (pH 7.0), 25 °C): 10-20 µM and 4-7 µg/mL
- Solubility class ([3]; HEPES (pH 7.0), 37 °C): moderate (a solubility of 10–60 μg mL^−1 is considered moderate)
- Solubility range ([3]; HEPES (pH 7.0), 37 °C): 20-40 µM and 7–15 µg/mL
- Solubility range ([3]; PBS (pH7.4), 25 °C): 10-20 µM and 4-7 µg/mL
- Solubility range ([3]; PBS (pH7.4), 37 °C): 10-20 µM and 4-7 µg/mL
- EC50 [1, 5]: 17.9 µM
- E 1/2 (Cyclic voltammetry; Run1, scan rate 25 mV s^−1): 653 mV
- ΔEp (Cyclic voltammetry; Run1, scan rate 25 mV s^−1): 105 mV
- E 1/2 (Cyclic voltammetry; Run2, scan rate 90 mV s^−1): 643 mV
- ΔEp (Cyclic voltammetry; Run2, scan rate 90 mV s^−1): 78 mV
- ROS formation in treated parasites (CellRox red fluorescence) (T. gondii parasites): triggered the formation of ROS
